The source of these data is patent publication US20230174562A1, “RADIO-AND CHEMO-PROTECTIVE COMPOUNDS” (TONIX PHARMACEUTICALS, INC., priority 2020, published 2023).

The conditions of data set [1]: cited from earlier work.
Data set [2] concerns mice exposed to total body irradiation (TBI). The experiment in a line: Phase 2 efficacy: survival of mice dosed before total body irradiation (TBI) at LD100/30. The format is in vivo. The procedure: Male mice were randomized and assessed in two phases: 1) for maximum tolerated doses (MTDs) of PrC-210, DzCH2SH, and 2Pip-2PrSH to determine dose levels for the efficacy study and 2) to evaluate the efficacy of the compounds when administered 60±5 minutes prior to exposure to total body irradiation (TBI) at an LD100/30 dose (990 cGy) (Tables 1 and 2).
For Phase 1 or 2, sterile water (vehicle), PrC-210, DzCH2SH, and 2Pip2PrSH were administered at 10 mL/kg calculated based on the most recent body weight via oral gavage. Animals were not fasted prior to administration of the compounds or vehicle. Mice in Phase 1 were administered the dose on Day 1 and mice in Phase 2 were administered the dose 60±5 minutes prior to TBI on Day 0.
Irradiation was administered once to the whole body. TBI of mice were performed using a 6 MV LINAC photon source (TrueBeam STx source). Animals were irradiated at a dose rate of up to 80 cGy/min to the midline of the animals. The source irradiated animals to 50% of the dose from anterior-posterior direction and […] from the posterior-anterior direction. Dose measurements were performed with a PTW 31010 0.1 cc Semiflex Ion chamber.
All surviving animals were observed once daily for clinical signs (e.g., unusually low or high activity, lethargy, shivering, appearance of fur, bloody and water stool, and other symptoms of moribundity) at 1-2 hours post-irradiation and/or post-dose and once daily on non-dosing days until Day 4 (Phase 1) or Day 30 (Phase 2).
In Phase 2 (Table 2), survival curves of mice treated with vehicle, PrC-210, DzCH2SH or 2Pip-PrSH prior to TBI with 9.9 Gy were measured (FIG. 1). […] Five mice were moribund sacrificed, and 6 mice were found dead. Survival in the Group 13 animals was 0% and median survival time was 8 days. In mice administered with PrC-210 before TBI (Group 14), 4 animals survived until scheduled sacrifice (Day 30) while 7 mice were moribund sacrificed. […] In mice administered with DzCH2SH before TBI (Group 15), 3 animals survived until scheduled sacrifice (Day 30) while 7 mice were moribund sacrificed, and one mouse was found dead. […] Five mice were moribund sacrificed and six mice were found dead. Survival in the Group 16 mice was 0% and median survival time was 10 days.

The test system of data set [3] is mice exposed to whole body irradiation. The experiment in a line: Radiation LD50 in mice after whole body irradiation. The format is in vivo. Particulars: oral gavage 60 minutes prior to whole body irradiation 2-12 Gy, 30 days. The protocol:
The affect of the compounds according to the disclosure on the dose of radiation required to kill 50% of mice (LD50) is assessed.
Mice are assigned to three groups (Groups 1, 2 and 3). A control group, Group 1, is treated via oral gavage with vehicle (Lactated Ringer's and 5% dextrose, adjusted to pH 7.3 with sodium bicarbonate) 60 minutes prior to whole body irradiation (2 Gy). Group 2 is treated via oral gavage with PrC-210, as a positive control, dissolved in Lactated Ringer's at a dose of 200 mg/kg 60 minutes prior to whole body irradiaton (2 Gy). Group 3 is treated via oral gavage with compound 1 (PrC-210-PT) dissolved in Lactated Ringer's at a dose of 308 mg/kg 60 minutes prior to whole body irradiation (2 Gy). The mortality of the three groups is assessed for 30 days post irradiation.
The experiment is repeated using varying radiation doses of 4, 6, 8, 10 and 12 Gy. The LD50 for each group was determined.
The experiment is repeated to assess compounds 2-23 as radioprotectors.

Where [4] appears, read: 1000 mg/kg oral gavage before TBI 9.9 Gy.
The mark [5] stands for this setting: after 1000 mg/kg oral gavage and TBI 9.9 Gy, 11 per group.
Where [6] appears, read: of 11 mice, 1000 mg/kg oral gavage before TBI 9.9 Gy.

For `CNCC(CS)CNC` [PrC-210, 3-(methylamino)-2-((methylamino)methyl)propane-1-thiol, reference compound], in data set [1] (administered topically and orally in preclinical studies), the radioprotective properties entry is “demonstrated radioprotective properties”. The side effects entry in data set [1] (compared with Amifostine) is “less side effects than Amifostine”. Further, in data set [2] (setting [4]), the “survival compared to vehicle (Group 13) by Chi-square test” value is on record as “statistically significantly higher” and the “survival compared to vehicle (Group 13) by Log-rank (Mantel-Cox) test” value is given as “statistically significantly higher”. In data set [2] (Day 30, male mice, 1000 mg/kg oral gavage 60±5 min before TBI 9.9 Gy (LD100/30), 11 animals), this compound yielded a Survival of 36.4%. For the same compound, the “mean body weight on Day 9 versus Groups 13, 15 and 16” value in data set [2] (after 1000 mg/kg oral gavage and TBI 9.9 Gy) is recorded as “higher”. For the same compound, in data set [2] (setting [5]), the “number of animals with eye discharge” value is recorded as “one”, the “number of animals with hypoactivity” value is given as 5, the “number of animals with swollen eye” value was “one” and the “number of mice with tremor” value is on record as 4. Further, the “body weight gain on Days 5 to 9” value in data set [2] (after 1000 mg/kg oral gavage and TBI 9.9 Gy, compared to the vehicle group (Group 13)) is reported as “significantly higher”. Moreover, in data set [2] (male mice, 1000 mg/kg oral gavage 60±5 min before TBI 9.9 Gy (LD100/30)), the median survival time is 11 days. Also, in data set [2] (setting [6]), the “number of animals survived until scheduled sacrifice (Day 30)” value is on record as 4 and the “number of mice moribund sacrificed” value was 7. Besides, the “survival of animals through 30 days post exposure” value in data set [2] (treated prior to total body irradiation (LD100/30)) is reported as “increased survival”. The “radiation LD50 versus control group” value in data set [3] is listed as “control group demonstrates a lower LD50 compared to the mice treated with”.
